Assay results as given in paper PMC4465272 (eNeuro, 2015).
“Also recorded” adds a separate entry of the source. Read-outs that look alike come from different tables or passages of the source.

Key:
[1] = system: model of peripheral neuropathy in the rat; details: ref Franek et al., 2004; cited from earlier work
Description: Furthermore, GABAB receptor activation inhibits the activity of N-type CaV channels (CaV2.2) and inhibition of N-type channels expressed by nocicept ...

[2] = system: eEPSCs in the dorsal horn of rat spinal cord; details: cited from earlier work
[3] = system: CaV current in rat sensory neurons (DRG); assay: cells; format: cell-based, rat (adult male Sprague Dawley); details: for inhibition at 30 µM: Rattus norvegicus, Neuron
animal pain models = details: in vivo, iv; cited from earlier work

## NCC(CC(=O)O)c1ccc(Cl)cc1 (stereo not shown) [baclofen, reference compound]
[1]
  analgesic effect: analgesic effects
[2]
  effect on eEPSCs / EPSPs in dorsal horn: strongly inhibited; also recorded: almost completely blocked
[3]
  sensory neurons with CaV current inhibited by baclofen: 95%
  voltage dependence of CaV current inhibition: voltage-dependent
[3]; read-out: CaV current inhibition in the neuron with the largest Vc1.1 and RgIA response
  inhibition at 30 µM: 22%
[3]; read-out: CaV current inhibition in the neuron with the largest baclofen response
  inhibition at 30 µM: 34%
[3]; read-out: baclofen-induced CaV current inhibition in seven other neurons
  inhibition at 30 µM: 20 to 24%
[3]; read-out: postpulse CaV current inhibition
  inhibition at 30 µM: 12 ± 5.5%
[3]; read-out: prepulse CaV current inhibition
  inhibition at 30 µM: 19.2 ± 6.8%

## ziconotide [reference compound]
Animal pain models
  effect on neuropathic pain: did not decrease neuropathic pain
